Reference: PubChem BioAssay (NCI)
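Grown in 96-well plates, cells were treated for 48 hours with each compound at five concentrations. Insufficient inhibition: endpoint recorded as highest concentration tested. GI50 is the concentration that inhibits growth by half. TGI is the concentration that stops growth completely.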

System: A549 NSCLC
Experiment: DTP human tumour cell line panel, 48 h

First: CC1(C)C(=O)/C(=C\c2cccnc2)C[C@]2(C)[C@H]3CC[C@@H]4[C@H]5[C@H](C(=O)/C=C/c6cccnc6)CC[C@]5(C(=O)O)CC[C@@]4(C)[C@]3(C)CC[C@@H]12
Second: CC12OC(C(=O)C13CC3)C1C(=O)c3ccc4c(ccc5ccccc54)c3C(=O)C12 (centres undefined)
The GI50 of the first is 21-fold lower: 2.14 µM for the first, 45 µM for the second.

Compared with `c1ccc(Sc2ccc(Cc3nc4cc5ccccc5cc4[nH]3)cc2)cc1`, `Cc1ccc(N=C/C=C(\Nc2ccc(C)cc2)c2ccc(Cl)cc2)cc1` is 4.5-fold higher in GI50: 2.33 µM for the first, 10.5 µM for the second.

`COc1ccc(C[N+](C)(C)N)cc1OC` gave a GI50 greater than 100 µM.

First: CC1(C)C(=O)/C(=C\c2cccnc2)C[C@]2(C)[C@H]3CC[C@@H]4[C@H]5[C@H](C(=O)/C=C/c6cccnc6)CC[C@]5(C(=O)O)CC[C@@]4(C)[C@]3(C)CC[C@@H]12
Second: CC12OC(C(=O)C13CC3)C1C(=O)c3ccc4c(ccc5ccccc54)c3C(=O)C12 (centres undefined)
The TGI of the first is lower: 5.11 µM for the first, greater than 100 µM for the second.

`COC(=O)C(Cc1nc2ccccc2[nH]c1=O)C(NO)C(=O)Nc1c(Cl)cc([N+](=O)[O-])cc1Cl` (centres undefined) and `Cc1cc(NC(=S)SCc2ccc(F)cc2)c([N+](=O)[O-])cc1C` cannot be ordered by TGI: greater than 100 µM for the first, greater than 100 µM for the second.

`OCC1OC(n2cnc3c2NC=NC[C@H]3O)C(Cl)C1O` (some centres undefined) and `c1ccc(C2N3CCCCC3[C@@H]3c4[nH]c5ccccc5c4CCN23)nc1` (some centres undefined) cannot be ordered by TGI: greater than 100 µM for the first, greater than 100 µM for the second.

`c1ccc(Sc2ccc(Cc3nc4cc5ccccc5cc4[nH]3)cc2)cc1` and `O=C1c2ccccc2C(=O)C1(O)c1c[nH]c2ccccc12` cannot be ordered by TGI: greater than 61.4 µM for the first, greater than 100 µM for the second.

Compared with `CN1CCc2nc(N)nc(-c3nc(N)nc4c3CN(C)CC4)c2C1`, `COc1ccc(-c2cc(-c3cc(C)cc(Br)c3O)no2)cc1` is lower in TGI: greater than 100 µM for the first, 57 µM for the second.

`Cc1[nH]c(=O)nc2[nH][nH]c(=O)c12` and `Nc1ccccc1/C(O)=C1/CCOC1=O` cannot be ordered by TGI: greater than 100 µM for the first, greater than 100 µM for the second.

First: COc1ccc(C[N+](C)(C)N)cc1OC
Second: Cc1ccc(N=C/C=C(\Nc2ccc(C)cc2)c2ccc(Cl)cc2)cc1
The TGI of the first is higher: greater than 100 µM for the first, 61.1 µM for the second.

`O=C(N/N=C/c1cc(Br)ccc1O)N/N=C/c1cc(Br)ccc1O` and `CCCN(CCC)C(=O)c1c([N+](=O)[O-])cc(C(F)(F)F)cc1[N+](=O)[O-]` cannot be ordered by TGI: greater than 100 µM for the first, greater than 100 µM for the second.

Compound `c1cnn(CN(Cn2cccn2)Cn2cccn2)c1` has a TGI greater than 100 µM.

System: SN12C renal
Experiment: DTP human tumour cell line panel, 48 h

Going from `CC1(C)C(=O)/C(=C\c2cccnc2)C[C@]2(C)[C@H]3CC[C@@H]4[C@H]5[C@H](C(=O)/C=C/c6cccnc6)CC[C@]5(C(=O)O)CC[C@@]4(C)[C@]3(C)CC[C@@H]12` to `c1ccc(Sc2ccc(Cc3nc4cc5ccccc5cc4[nH]3)cc2)cc1`, the GI50 rises from 2.79 µM to 16.8 µM (6-fold).

Compared with `COc1ccc(C[N+](C)(C)N)cc1OC`, `Cc1ccc(N=C/C=C(\Nc2ccc(C)cc2)c2ccc(Cl)cc2)cc1` is lower in GI50: greater than 100 µM for the first, 11.7 µM for the second.

Compared with `CC1(C)C(=O)/C(=C\c2cccnc2)C[C@]2(C)[C@H]3CC[C@@H]4[C@H]5[C@H](C(=O)/C=C/c6cccnc6)CC[C@]5(C(=O)O)CC[C@@]4(C)[C@]3(C)CC[C@@H]12`, `c1ccc(C2N3CCCCC3[C@@H]3c4[nH]c5ccccc5c4CCN23)nc1` (some centres undefined) is higher in TGI: 9.76 µM for the first, greater than 100 µM for the second.

First: COC(=O)C(Cc1nc2ccccc2[nH]c1=O)C(NO)C(=O)Nc1c(Cl)cc([N+](=O)[O-])cc1Cl (centres undefined)
Second: Cc1cc(NC(=S)SCc2ccc(F)cc2)c([N+](=O)[O-])cc1C
The TGI of the first is higher: greater than 100 µM for the first, 48.4 µM for the second.

`OCC1OC(n2cnc3c2NC=NC[C@H]3O)C(Cl)C1O` (some centres undefined) and `Nc1ccccc1/C(O)=C1/CCOC1=O` cannot be ordered by TGI: greater than 100 µM for the first, greater than 100 µM for the second.

`c1ccc(Sc2ccc(Cc3nc4cc5ccccc5cc4[nH]3)cc2)cc1` and `COc1ccc(-c2cc(-c3cc(C)cc(Br)c3O)no2)cc1` are within 1.5-fold of each other in TGI: 76.5 µM for the first, 85.2 µM for the second.

`CN1CCc2nc(N)nc(-c3nc(N)nc4c3CN(C)CC4)c2C1` and `Cc1[nH]c(=O)nc2[nH][nH]c(=O)c12` cannot be ordered by TGI: greater than 100 µM for the first, greater than 100 µM for the second.

First: COc1ccc(C[N+](C)(C)N)cc1OC
Second: Cc1ccc(N=C/C=C(\Nc2ccc(C)cc2)c2ccc(Cl)cc2)cc1
The TGI of the first is higher: greater than 100 µM for the first, 33.3 µM for the second.

`O=C(N/N=C/c1cc(Br)ccc1O)N/N=C/c1cc(Br)ccc1O` and `CCCN(CCC)C(=O)c1c([N+](=O)[O-])cc(C(F)(F)F)cc1[N+](=O)[O-]` cannot be ordered by TGI: greater than 100 µM for the first, greater than 100 µM for the second.

For `c1cnn(CN(Cn2cccn2)Cn2cccn2)c1`, the TGI was greater than 100 µM.

System: U251 CNS
Experiment: DTP human tumour cell line panel, 48 h

Going from `CC1(C)C(=O)/C(=C\c2cccnc2)C[C@]2(C)[C@H]3CC[C@@H]4[C@H]5[C@H](C(=O)/C=C/c6cccnc6)CC[C@]5(C(=O)O)CC[C@@]4(C)[C@]3(C)CC[C@@H]12` to `c1ccc(Sc2ccc(Cc3nc4cc5ccccc5cc4[nH]3)cc2)cc1`, the GI50 rises from 1.74 µM to 3.68 µM (2.1-fold).

First: COc1ccc(C[N+](C)(C)N)cc1OC
Second: Cc1ccc(N=C/C=C(\Nc2ccc(C)cc2)c2ccc(Cl)cc2)cc1
The GI50 of the first is higher: greater than 100 µM for the first, 7.39 µM for the second.

Compared with `CC1(C)C(=O)/C(=C\c2cccnc2)C[C@]2(C)[C@H]3CC[C@@H]4[C@H]5[C@H](C(=O)/C=C/c6cccnc6)CC[C@]5(C(=O)O)CC[C@@]4(C)[C@]3(C)CC[C@@H]12`, `c1ccc(C2N3CCCCC3[C@@H]3c4[nH]c5ccccc5c4CCN23)nc1` (some centres undefined) is higher in TGI: 3.26 µM for the first, greater than 100 µM for the second.

First: COC(=O)C(Cc1nc2ccccc2[nH]c1=O)C(NO)C(=O)Nc1c(Cl)cc([N+](=O)[O-])cc1Cl (centres undefined)
Second: Cc1cc(NC(=S)SCc2ccc(F)cc2)c([N+](=O)[O-])cc1C
The TGI of the first is 1.7-fold higher: 99 µM for the first, 57.5 µM for the second.

`OCC1OC(n2cnc3c2NC=NC[C@H]3O)C(Cl)C1O` (some centres undefined) and `Nc1ccccc1/C(O)=C1/CCOC1=O` cannot be ordered by TGI: greater than 100 µM for the first, greater than 100 µM for the second.

`c1ccc(Sc2ccc(Cc3nc4cc5ccccc5cc4[nH]3)cc2)cc1` and `O=C1c2ccccc2C(=O)C1(O)c1c[nH]c2ccccc12` cannot be ordered by TGI: greater than 57.9 µM for the first, greater than 100 µM for the second.

First: CN1CCc2nc(N)nc(-c3nc(N)nc4c3CN(C)CC4)c2C1
Second: COc1ccc(-c2cc(-c3cc(C)cc(Br)c3O)no2)cc1
The TGI of the first is higher: greater than 100 µM for the first, 33.5 µM for the second.

Going from `Cc1[nH]c(=O)nc2[nH][nH]c(=O)c12` to `Cc1ccc(N=C/C=C(\Nc2ccc(C)cc2)c2ccc(Cl)cc2)cc1`, the TGI falls from greater than 100 µM to 50.1 µM.

`COc1ccc(C[N+](C)(C)N)cc1OC` and `CCCN(CCC)C(=O)c1c([N+](=O)[O-])cc(C(F)(F)F)cc1[N+](=O)[O-]` cannot be ordered by TGI: greater than 100 µM for the first, greater than 100 µM for the second.

`O=C(N/N=C/c1cc(Br)ccc1O)N/N=C/c1cc(Br)ccc1O` and `c1cnn(CN(Cn2cccn2)Cn2cccn2)c1` cannot be ordered by TGI: greater than 100 µM for the first, greater than 100 µM for the second.

System: UACC-257 melanoma
Experiment: DTP human tumour cell line panel, 48 h

First: CC1(C)C(=O)/C(=C\c2cccnc2)C[C@]2(C)[C@H]3CC[C@@H]4[C@H]5[C@H](C(=O)/C=C/c6cccnc6)CC[C@]5(C(=O)O)CC[C@@]4(C)[C@]3(C)CC[C@@H]12
Second: CC12OC(C(=O)C13CC3)C1C(=O)c3ccc4c(ccc5ccccc54)c3C(=O)C12 (centres undefined)
The GI50 of the first is 18-fold lower: 1.88 µM for the first, 33.5 µM for the second.

Going from `c1ccc(Sc2ccc(Cc3nc4cc5ccccc5cc4[nH]3)cc2)cc1` to `Cc1ccc(N=C/C=C(\Nc2ccc(C)cc2)c2ccc(Cl)cc2)cc1`, the GI50 rises from 5.33 µM to 15.8 µM (3-fold).

Compound `COc1ccc(C[N+](C)(C)N)cc1OC` has a GI50 greater than 100 µM.

Going from `CC1(C)C(=O)/C(=C\c2cccnc2)C[C@]2(C)[C@H]3CC[C@@H]4[C@H]5[C@H](C(=O)/C=C/c6cccnc6)CC[C@]5(C(=O)O)CC[C@@]4(C)[C@]3(C)CC[C@@H]12` to `CC12OC(C(=O)C13CC3)C1C(=O)c3ccc4c(ccc5ccccc54)c3C(=O)C12` (centres undefined), the TGI rises from 4.25 µM to greater than 100 µM.

Going from `COC(=O)C(Cc1nc2ccccc2[nH]c1=O)C(NO)C(=O)Nc1c(Cl)cc([N+](=O)[O-])cc1Cl` (centres undefined) to `Cc1cc(NC(=S)SCc2ccc(F)cc2)c([N+](=O)[O-])cc1C`, the TGI falls from greater than 100 µM to 53.6 µM.

`OCC1OC(n2cnc3c2NC=NC[C@H]3O)C(Cl)C1O` (some centres undefined) and `c1ccc(C2N3CCCCC3[C@@H]3c4[nH]c5ccccc5c4CCN23)nc1` (some centres undefined) cannot be ordered by TGI: greater than 100 µM for the first, greater than 100 µM for the second.

First: c1ccc(Sc2ccc(Cc3nc4cc5ccccc5cc4[nH]3)cc2)cc1
Second: O=C1c2ccccc2C(=O)C1(O)c1c[nH]c2ccccc12
The TGI of the first is lower: 29.1 µM for the first, greater than 100 µM for the second.

`CN1CCc2nc(N)nc(-c3nc(N)nc4c3CN(C)CC4)c2C1` and `COc1ccc(-c2cc(-c3cc(C)cc(Br)c3O)no2)cc1` cannot be ordered by TGI: greater than 100 µM for the first, greater than 100 µM for the second.

`COc1ccc(C[N+](C)(C)N)cc1OC` and `Nc1ccccc1/C(O)=C1/CCOC1=O` cannot be ordered by TGI: greater than 100 µM for the first, greater than 100 µM for the second.

Going from `O=C(N/N=C/c1cc(Br)ccc1O)N/N=C/c1cc(Br)ccc1O` to `Cc1ccc(N=C/C=C(\Nc2ccc(C)cc2)c2ccc(Cl)cc2)cc1`, the TGI falls from greater than 100 µM to 38.8 µM.

`c1cnn(CN(Cn2cccn2)Cn2cccn2)c1` showed a TGI greater than 100 µM.

System: HT29 colon
Experiment: DTP human tumour cell line panel, 48 h

In order of rising GI50:
1. CC1(C)C(=O)/C(=C\c2cccnc2)C[C@]2(C)[C@H]3CC[C@@H]4[C@H]5[C@H](C(=O)/C=C/c6cccnc6)CC[C@]5(C(=O)O)CC[C@@]4(C)[C@]3(C)CC[C@@H]12  3.09 µM
2. c1ccc(Sc2ccc(Cc3nc4cc5ccccc5cc4[nH]3)cc2)cc1  8.54 µM

Compared with `CC1(C)C(=O)/C(=C\c2cccnc2)C[C@]2(C)[C@H]3CC[C@@H]4[C@H]5[C@H](C(=O)/C=C/c6cccnc6)CC[C@]5(C(=O)O)CC[C@@]4(C)[C@]3(C)CC[C@@H]12`, `COC(=O)C(Cc1nc2ccccc2[nH]c1=O)C(NO)C(=O)Nc1c(Cl)cc([N+](=O)[O-])cc1Cl` (centres undefined) is higher in TGI: 10.8 µM for the first, greater than 100 µM for the second.

`OCC1OC(n2cnc3c2NC=NC[C@H]3O)C(Cl)C1O` (some centres undefined) and `CN1CCc2nc(N)nc(-c3nc(N)nc4c3CN(C)CC4)c2C1` cannot be ordered by TGI: greater than 100 µM for the first, greater than 100 µM for the second.

`c1ccc(Sc2ccc(Cc3nc4cc5ccccc5cc4[nH]3)cc2)cc1` and `Cc1[nH]c(=O)nc2[nH][nH]c(=O)c12` cannot be ordered by TGI: greater than 100 µM for the first, greater than 100 µM for the second.
